From PubChem BioAssay AID1963451 (Molecular Pharmacology Branch, DTP, NCI, 2024)
Several values for one entry are separate records, joined by “and”; a condition that tells them apart may be missing. Equal entries are not always repeated.

Test system: 521955-158-R6-J3-PDC complex spheroid growth, % test/control
Test: Anticancer human tumor 521955-158-R6-J3-PDC patient-derived pancreatic carcinoma cell line growth inhibition [Asc]
Conditions: for viability, T/C: stronger effect = lower value
In short: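 Spheroid model: tumor line + HUVEC + hMSC. Single agents and combinations; top conc. at/near clinical Cmax (10 microM if undetermined), half-log dilutions. DMSO stocks at 800-fold test concentration.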

[1] = curve of first compound, second compound 0.00949 µM
[2] = curve of first compound, second compound 0.03 µM
[3] = curve of first compound, second compound 0.0949 µM
[4] = curve of first compound, second compound 0.3 µM
[5] = curve of first compound, second compound 0.949 µM
[6] = curve of first compound, second compound 3 µM
[7] = second compound 0.00949 µM, first compound 0.00316 µM
[8] = second compound 0.00949 µM, first compound 0.01 µM
[9] = second compound 0.00949 µM, first compound 0.0316 µM
[10] = second compound 0.00949 µM, first compound 0.1 µM
[11] = second compound 0.03 µM, first compound 0.00316 µM
[12] = second compound 0.03 µM, first compound 0.01 µM
[13] = second compound 0.03 µM, first compound 0.0316 µM
[14] = second compound 0.03 µM, first compound 0.1 µM
[15] = second compound 0.0949 µM, first compound 0.00316 µM
[16] = second compound 0.0949 µM, first compound 0.01 µM
[17] = second compound 0.0949 µM, first compound 0.0316 µM
[18] = second compound 0.0949 µM, first compound 0.1 µM
[19] = second compound 0.3 µM, first compound 0.00316 µM
[20] = second compound 0.3 µM, first compound 0.01 µM
[21] = second compound 0.3 µM, first compound 0.0316 µM
[22] = second compound 0.3 µM, first compound 0.1 µM
[23] = second compound 0.949 µM, first compound 0.00316 µM
[24] = second compound 0.949 µM, first compound 0.01 µM
[25] = second compound 0.949 µM, first compound 0.0316 µM
[26] = second compound 0.949 µM, first compound 0.1 µM
[27] = second compound 3 µM, first compound 0.00316 µM
[28] = second compound 3 µM, first compound 0.01 µM
[29] = second compound 3 µM, first compound 0.0316 µM
[30] = second compound 3 µM, first compound 0.1 µM
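Note: spheroids exposed to compounds for 7 days.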
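Throughout, for viability, T/C: 100% = DMSO vehicle control wells.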

With `Cn1ncnc1[C@H]1c2n[nH]c(=O)c3cc(F)cc(c23)N[C@@H]1c1ccc(F)cc1` + CCN1C(C(=O)NC23CCC(C(=O)O)(CC2)CC3)C(c2cccc(Cl)c2F)C2(C(=O)Nc3cc(Cl)ccc32)C12CCCCC2 the IC50 [1] was > 100 nM, the IC50 [2] was > 100 nM and the IC50 [3] was > 100 nM. The IC50 [4] was > 100 nM, the IC50 [5] was > 100 nM and the IC50 [6] was > 100 nM. For the same molecule, the viability, T/C (second compound 0.00949 µM, first compound 0.000316 µM) was 114%, the viability, T/C (second compound 0.00949 µM, first compound 0.001 µM) was 102% and the viability, T/C [7] was 98.8%. It also gave a viability, T/C [8] of 91.7%, a viability, T/C [9] of 78.9% and a viability, T/C [10] of 91.2%. The viability, T/C (second compound 0.03 µM, first compound 0.000316 µM) was 100%, the viability, T/C (second compound 0.03 µM, first compound 0.001 µM) was 94.1% and the viability, T/C [11] was 100%. It also gave a viability, T/C [12] of 99.5%, a viability, T/C [13] of 97.5% and a viability, T/C [14] of 94.6%. It also gave a viability, T/C (second compound 0.0949 µM, first compound 0.000316 µM) of 95.7%, a viability, T/C (second compound 0.0949 µM, first compound 0.001 µM) of 94.8% and a viability, T/C [15] of 101%. For the same molecule, the viability, T/C [16] was 102%, the viability, T/C [17] was 94.3% and the viability, T/C [18] was 98.9%. It also gave a viability, T/C (second compound 0.3 µM, first compound 0.000316 µM) of 97.2%, a viability, T/C (second compound 0.3 µM, first compound 0.001 µM) of 97.7% and a viability, T/C [19] of 99.4%. The viability, T/C [20] was 80.5%, the viability, T/C [21] was 98.3% and the viability, T/C [22] was 102%. For the same molecule, the viability, T/C (second compound 0.949 µM, first compound 0.000316 µM) was 104%, the viability, T/C (second compound 0.949 µM, first compound 0.001 µM) was 100% and the viability, T/C [23] was 114%. It also gave a viability, T/C [24] of 87.5%, a viability, T/C [25] of 96.3% and a viability, T/C [26] of 99.8%. It also gave a viability, T/C (second compound 3 µM, first compound 0.000316 µM) of 100%, a viability, T/C (second compound 3 µM, first compound 0.001 µM) of 90.4% and a viability, T/C [27] of 108%. The viability, T/C [28] was 82%, the viability, T/C [29] was 98.6% and the viability, T/C [30] was 99%.

In the case of `C=CC(=O)N1CCN(c2nc(=O)n(-c3c(C)ccnc3C(C)C)c3nc(-c4c(O)cccc4F)c(F)cc23)C(C)C1` (stereo unspecified), the viability, T/C (compound 0.0316 µM) is reported as 104% and 94.7% and 96.5%, the viability, T/C (compound 0.1 µM) is reported as 105% and 107% and 89.4% and the viability, T/C (compound 0.316 µM) is reported as 95.1% and 92% and 95.3%. The viability, T/C (compound 1 µM) was 111% and 100% and 122%, the viability, T/C (compound 3.16 µM) was 112% and 125% and 121% and the viability, T/C (compound 10 µM) was 93.7% and 124% and 118%. The IC50 (curve of compound) was > 10000 nM.

With `CCN1C(C(=O)NC23CCC(C(=O)O)(CC2)CC3)C(c2cccc(Cl)c2F)C2(C(=O)Nc3cc(Cl)ccc32)C12CCCCC2` (stereo unspecified) the viability, T/C (compound 0.3 µM) was 109% [middle of 9 runs], the IC50 (compound alone, run of 11/07/2022) was > 3000 nM and the IC50 (curve of compound) was > 3000 nM.

In the case of `CNC(C)C(=O)NC1CN(S(=O)(=O)c2cccc(S(=O)(=O)N3CCC4CCC(C(=O)NC(c5ccccc5)c5ccccc5)N4C(=O)C(NC(=O)C(C)NC)C3)c2)CCC2CCC(C(=O)NC(c3ccccc3)c3ccccc3)N2C1=O` (stereo unspecified) + CCN1C(C(=O)NC23CCC(C(=O)O)(CC2)CC3)C(c2cccc(Cl)c2F)C2(C(=O)Nc3cc(Cl)ccc32)C12CCCCC2, the IC50 [1] is reported as > 1000 nM, the IC50 [2] is reported as > 1000 nM and the IC50 [3] is reported as > 1000 nM. The IC50 [4] was > 1000 nM, the IC50 [5] was > 1000 nM and the IC50 [6] was > 1000 nM. The viability, T/C [7] was 110%, the viability, T/C [8] was 95.2% and the viability, T/C [9] was 83.7%. It also gave a viability, T/C [10] of 89.8%, a viability, T/C (second compound 0.00949 µM, first compound 0.316 µM) of 89.7% and a viability, T/C (second compound 0.00949 µM, first compound 1 µM) of 89.7%. The viability, T/C [11] was 91.8%, the viability, T/C [12] was 96% and the viability, T/C [13] was 113%. For the same molecule, the viability, T/C [14] was 101%, the viability, T/C (second compound 0.03 µM, first compound 0.316 µM) was 69% and the viability, T/C (second compound 0.03 µM, first compound 1 µM) was 81.5%. The viability, T/C [15] was 102%, the viability, T/C [16] was 89.9% and the viability, T/C [17] was 92.3%. For the same molecule, the viability, T/C [18] was 86.9%, the viability, T/C (second compound 0.0949 µM, first compound 0.316 µM) was 76.9% and the viability, T/C (second compound 0.0949 µM, first compound 1 µM) was 86.2%. For the same molecule, the viability, T/C [19] was 96.2%, the viability, T/C [20] was 111% and the viability, T/C [21] was 100%. For the same molecule, the viability, T/C [22] was 99.8%, the viability, T/C (second compound 0.3 µM, first compound 0.316 µM) was 93.5% and the viability, T/C (second compound 0.3 µM, first compound 1 µM) was 95%. For the same molecule, the viability, T/C [23] was 106%, the viability, T/C [24] was 85.1% and the viability, T/C [25] was 93.7%. The viability, T/C [26] was 101%, the viability, T/C (second compound 0.949 µM, first compound 0.316 µM) was 96.8% and the viability, T/C (second compound 0.949 µM, first compound 1 µM) was 109%. The viability, T/C [27] was 95%, the viability, T/C [28] was 96% and the viability, T/C [29] was 108%. It also gave a viability, T/C [30] of 86.2%, a viability, T/C (second compound 3 µM, first compound 0.316 µM) of 96.6% and a viability, T/C (second compound 3 µM, first compound 1 µM) of 80.8%.

In the case of `O=C(c1ccc(F)c(F)c1Nc1ccc(I)cc1F)N1CC(O)([C@@H]2CCCCN2)C1` + Cc1c(S(C)(=O)=O)c(-c2cc(F)cc(N3CCN(c4ccc(NS(=O)(=O)c5ccc(NC(CCN6CCC(C(=O)OCCCP(=O)(O)O)CC6)CSc6ccccc6)c(S(=O)(=O)C(F)(F)F)c5)cc4)CC3)c2)c(-c2ccc(Cl)cc2)n1C(C)C, the IC50 (curve of first compound, second compound 0.0316 µM) is reported as 257 nM, the IC50 (curve of first compound, second compound 0.1 µM) is reported as 166 nM and the IC50 (curve of first compound, second compound 0.316 µM) is reported as < 3.16 nM. For the same molecule, the IC50 (curve of first compound, second compound 1 µM) was < 3.16 nM, the IC50 (curve of first compound, second compound 3.16 µM) was < 3.16 nM and the IC50 (curve of first compound, second compound 10 µM) was < 3.16 nM. For the same molecule, the viability, T/C (second compound 0.0316 µM, first compound 0.00316 µM) was 78.6%, the viability, T/C (second compound 0.0316 µM, first compound 0.01 µM) was 83.5% and the viability, T/C (second compound 0.0316 µM, first compound 0.0316 µM) was 97.3%. It also gave a viability, T/C (second compound 0.0316 µM, first compound 0.1 µM) of 85%, a viability, T/C (second compound 0.0316 µM, first compound 0.316 µM) of 42.2% and a viability, T/C (second compound 0.0316 µM, first compound 1 µM) of 26.7%. It also gave a viability, T/C (second compound 0.1 µM, first compound 0.00316 µM) of 79.8%, a viability, T/C (second compound 0.1 µM, first compound 0.01 µM) of 69.1% and a viability, T/C (second compound 0.1 µM, first compound 0.0316 µM) of 84.2%. It also gave a viability, T/C (second compound 0.1 µM, first compound 0.1 µM) of 59.5%, a viability, T/C (second compound 0.1 µM, first compound 0.316 µM) of 35.3% and a viability, T/C (second compound 0.1 µM, first compound 1 µM) of 17.9%. For the same molecule, the viability, T/C (second compound 0.316 µM, first compound 0.00316 µM) was 47.8%, the viability, T/C (second compound 0.316 µM, first compound 0.01 µM) was 46.7% and the viability, T/C (second compound 0.316 µM, first compound 0.0316 µM) was 43.1%. The viability, T/C (second compound 0.316 µM, first compound 0.1 µM) was 36.8%, the viability, T/C (second compound 0.316 µM, first compound 0.316 µM) was 20.2% and the viability, T/C (second compound 0.316 µM, first compound 1 µM) was 5.24%. For the same molecule, the viability, T/C (second compound 1 µM, first compound 0.00316 µM) was 35.3%, the viability, T/C (second compound 1 µM, first compound 0.01 µM) was 39.4% and the viability, T/C (second compound 1 µM, first compound 0.0316 µM) was 29.7%. The viability, T/C (second compound 1 µM, first compound 0.1 µM) was 20.5%, the viability, T/C (second compound 1 µM, first compound 0.316 µM) was 6.12% and the viability, T/C (second compound 1 µM, first compound 1 µM) was 1.37%. It also gave a viability, T/C (second compound 3.16 µM, first compound 0.00316 µM) of 19.1%, a viability, T/C (second compound 3.16 µM, first compound 0.01 µM) of 25% and a viability, T/C (second compound 3.16 µM, first compound 0.0316 µM) of 19.6%. For the same molecule, the viability, T/C (second compound 3.16 µM, first compound 0.1 µM) was 6.55%, the viability, T/C (second compound 3.16 µM, first compound 0.316 µM) was 1.36% and the viability, T/C (second compound 3.16 µM, first compound 1 µM) was 0.4%. The viability, T/C (second compound 10 µM, first compound 0.00316 µM) was 14.6%, the viability, T/C (second compound 10 µM, first compound 0.01 µM) was 11.5% and the viability, T/C (second compound 10 µM, first compound 0.0316 µM) was 7.74%. For the same molecule, the viability, T/C (second compound 10 µM, first compound 0.1 µM) was 3.48%, the viability, T/C (second compound 10 µM, first compound 0.316 µM) was 1.23% and the viability, T/C (second compound 10 µM, first compound 1 µM) was 2.45%.
